Patent US10604512B2, “3-(1H-indol-2-yl)-1H-indazoles and therapeutic uses thereof” (Samumed, LLC, priority 2015, dated 2020)

Legend:
Format in all cases: cell-based
[1] = system: Wnt activity (Sp5-Luc reporter, TCF/LEF binding sites) in SW480 colon carcinoma cells; experiment: Screening assay for Wnt activity: Sp5-Luc reporter gene assay in stably transduced SW480 colon carcinoma cells; conditions: Homo sapiens, overnight incubation, 10-point curve from 10 μM
From the text: The screening assay for Wnt activity is described as follows. Reporter cell lines can be generated by stably transducing cancer cell lines (e.g., colon cancer) or primary cells (e.g., IEC-6 intestinal cells) with a lentiviral construct that includes a Wnt-responsive promoter driving expression of the firefly luciferase gene.
SW480 colon carcinoma cells were transduced with a lentiviral vector expressing luciferase with a human Sp5 promoter consisting of a sequence of eight TCF/LEF binding sites. SW480 cells stably expressing the Sp5-Luc reporter gene and a hygromycin resistance gene were selected by treatment with 150 μg/mL of hygromycin for 7 days. These stably transduced SW480 cells were expanded in cell culture and used for all further screening activities. Each compound was dissolved in DMSO as a 10 mM stock and used to prepare compound source plates. Serial dilution (1:3, 10-point dose-response curves starting from 10 μM) and compound transfer was performed using the ECHO 550 (Labcyte, Sunnyvale, Calif.) into 384-well white solid bottom assay plates (Greiner Bio-One) with appropriate DMSO backfill for a final DMSO concentration of 0.1%. For Sp5-Luc reporter gene assays, the cells were plated at 4,000 cells/well in 384-well plates with medium containing 1% fetal bovine serum and incubated overnight at 37° C. and 5% CO2. Following incubation, 20 μl of BrightGlo luminescence reagent (Promega) was added to each well of the 384-well assay plates. The plates were placed on an orbital shaker for 2 min and then luminescence was quantified using the Envision (Perkin Elmer) plate reader. Readings were normalized to DMSO only treated cells, and normalized activities were utilized for EC50 calculations using the dose-response log (inhibitor) vs. response variable slope (four parameters) nonlinear regression feature available in GraphPad Prism 5.0 (or Dotmatics). For EC50 of >10 μM, the percent inhibition at 10 μM is provided.

[2] = system: SW480 colon cancer cells; experiment: Cell viability assay (CellTiter-Blue) in SW480 colon cancer cells; conditions: Homo sapiens, 96 h, four days, CellTiter-Blue
Protocol: Representative compounds were screened using the following assay procedure to assess the effect on cell viability as described below.
Each compound was dissolved in DMSO as a 10 mM stock and used to prepare compound source plates. Serial dilution (1:3, 8-point dose-response curves from 10 μM to 0.0045 μM) and compound transfer was performed using the ECHO 550 (Labcyte, Sunnyvale, Calif.) into 96-well clear bottom, black-walled plates (Corning-Costar).
Approximately 2×10^3 SW480 colon cancer cells were seeded into each well and allowed to incubate in the presence or absence of compound for four days at 37° C./5% CO2. Eight replicates of DMSO-treated cells served as controls and cells treated with compound were performed in duplicate.
After incubation, 20 μL of CellTiter-Blue (Promega) was added to each well allowed to incubate for approximately 3 hours. This reagent was a buffered solution which contains resazurin, metabolically active cells were able to reduce rezarurin (blue) into resorufin (pink) which was highly fluorescent. This measured fluorescence was used as a readout for cell viability.
After incubation, the plates were read at Ex 560 nm Em 590 nm (Cytation 3, BioTek). Dose-response curves were generated and EC50 concentration values were calculated using non-linear regression curve fit in the GraphPad Prism (San Diego, Calif.) or Dotmatics' Studies Software (Bishops Stortford, UK). For EC50 of >10 μM, the percent inhibition at 10 μM is provided.

[3] = system: Primary human fibroblasts derived from IPF patients (LL29 cells) treated with TGF-β1; experiment: Inhibition of the fibrotic process: αSMA staining in TGF-β1-treated primary human fibroblasts from IPF patients (LL29 cells); conditions: Fibroblast, 96 h, % αSMA-positive LL29 cells, TGF-β1 20 ng/mL, 4 days
From the text: Representative compounds were screened using primary human fibroblasts (derived from IPF patients) treated with TGF-β1 to determine their ability to inhibit the fibrotic process.
Primary human fibroblasts derived from IPF patients (LL29 cells) [^1Xiaoqiu Liu, et. al., “Fibrotic Lung Fibroblasts Show Blunted Inhibition by cAMP Due to Deficient cAMP Response Element-Binding Protein Phosphorylation”, Journal of Pharmacology and Experimental Therapeutics (2005), 315(2), 678-687; ^2Watts, K. L., et. al., “RhoA signaling modulates cyclin D1 expression in human lung fibroblasts; implications for idiopathic pulmonary fibrosis”, Respiratory Research (2006), 7(1), 88] were obtained from American Type Culture Collection (ATCC) and expanded in F12 medium supplemented with 15% Fetal Bovine Serum and Penicillin/Streptomycin.
Each compound was dissolved in DMSO as a 10 mM stock and used to prepare compound source plates. Serial dilution (1:2, 11-point dose-response curves from 10 μM to […]) and compound transfer was performed using the ECHO 550 (Labcyte, Sunnyvale, Calif.) into 384-well clear bottom assay plates (Greiner Bio-One) with appropriate DMSO backfill for a final DMSO concentration of 0.1%. LL29 cells are plated at 1,500 cells/well in 80 μL/well F12 medium supplemented with 1% Fetal Bovine Serum. One hour after addition of the cells, TGF-β1 (Peprotech; 20 ng/mL) was added to the plates to induce fibrosis (ref 1 and 2 above). Wells treated with TGF-β1 and containing DMSO were used as controls. Cells were incubated at 37° C. and 5% CO2 for 4 days. Following incubation for 4 days, SYTOX green nucleic acid stain (Life Technologies [Thermo Fisher Scientific]) was added to the wells at a final concentration of 1 μM and incubated at room temperature for 30 min. Cells were then fixed using 4% formaldehyde (Electron Microscopy Sciences), washed 3 times with PBS followed by blocking and permeabilization using 3% Bovine Serum Albumin (BSA; Sigma) and 0.3% Triton X-100 (Sigma) in PBS. Cells were then stained with antibody specific to α-smooth muscle actin (αSMA; Abcam) (ref 1 and 2 above) in 3% Bovine Serum Albumin (BSA; Sigma) and 0.3% Triton X-100 (Sigma) in PBS, and incubated overnight at 4° C. Cells were then washed 3 times with PBS, followed by incubation with Alexa Flor-647 conjugated secondary antibody (Life Technologies [Thermo Fisher Scientific]) and DAPI at room temperature for 1 hour. Cells were then washed 3 times with PBS and plates were sealed for imaging. αSMA staining was imaged by excitation at 630 nm and emission at 665 nm and quantified using the Compartmental Analysis program on the CellInsight CX5 (Thermo Scientific). Dead or apoptotic cells were excluded from analysis based on positive SYTOX green staining. % of total cells positive for αSMA were counted in each well and normalized to the average of 11 wells treated with TGF-β1 on the same plate using Dotmatics' Studies Software. The normalized averages (fold change over untreated) of 3 replicate wells for each compound concentration were used to create dose-responses curves and EC50 values were calculated using non-linear regression curve fit in the Dotmatics' Studies Software. For EC50 of >10 μM, the percent inhibition at 10 μM is provided.

[4] = system: IL-6; experiment: Inhibition of IL-6 in LPS-stimulated THP-1 human monocyte cells (HTRF); conditions: for EC50: IL-6 inhibition, LPS-stimulated THP-1 cells, HTRF
Protocol: Human monocyte cell line (THP-1 cells; Catalog # TIB-202, ATCC, Manassas, Va.) were cultured in Roswell Park Memorial Institute (RPMI) 1640 Medium (Catalog #21870-100, Buffalo, N.Y.) with 1% L-glutamine, 1% HEPES, 1% Sodium Pyruvate, 2% Sodium Bicarbonate supplemented with 100 units/mL penicillin, 50 μg/mL streptomycin, 2-mercaptoethanol (0.05 mM) [basal medium] and 10% fetal bovine serum (Catalog #16140089, Life Technologies, Carlsbad, Calif.) at 37° C. and 5% CO2.
THP-1 cells were cultured in basal media with 1% FBS for 24 hours before the start of the assay. Each compound was dissolved in DMSO as a 10 mM stock and used to prepare compound source plates. Serial dilution (1:3, 10-point dose-response curves starting from 10 μM) and compound transfer was performed using the ECHO 550 (Labcyte, Sunnyvale, Calif.) into 384-well white low volume assay plates (Greiner Bio-One) with appropriate DMSO backfill for a final DMSO concentration of 0.1%. THP-1 cells were plated at 5000 cells/well in the 384-well plates and incubated at 37° C. for 2 h. 500 ng/mL of LPS was added after 2 hours and cells were incubated for another 22 hours at 37° C. Plates were spun in a centrifuge for 1 minute at […] and a mixture of anti-IL6 XL665, and anti-IL6 Cryptate diluted in reconstitution buffer (Cisbio Inc.) was added to each well. Following incubation for 3 hrs at room temperature, Homogeneous Time-Resolved Fluorescence (HTRF) was measured using the Envision (Perkin Elmer) at 665 nm and […]. The ratio of fluorescence at 665 nm to 620 nm was used as a readout for IL6 quantification. All samples were processed in duplicate. Readings were normalized to DMSO treated cells and normalized activities were utilized for EC50 calculations using the dose-response log (inhibitor) vs. response variable slope (four parameters) nonlinear regression feature available in GraphPad Prism 5.0 (or Dotmatics). For EC50 of >10 μM, the percent inhibition at 10 μM is provided.

SMILES: Cc1ccncc1-c1ccc2[nH]nc(-c3cc4c(-c5cccc(F)c5)cccc4[nH]3)c2c1 [Compound 5, 3-(4-(3-Fluorophenyl)-1H-indol-2-yl)-5-(4-methylpyridin-3-yl)-1H-indazole]
- EC50 [1]: 0.3 µM
- EC50 [2]: 0.563 µM
- EC50 [3]: 0.737 µM
- EC50 [4]: 0.834 µM

SMILES: Fc1cccc(-c2cccc3[nH]c(-c4n[nH]c5ccc(-c6cncc(CN7CCC(F)(F)C7)c6)cc45)cc23)c1 [Compound 26, 5-(5-((3,3-diFluoropyrrolidin-1-yl)methyl)pyridin-3-yl)-3-(4-(3-fluorophenyl)-1H-indol-2-yl)-1H-indazole]
- EC50 [1]: 0.495 µM
- EC50 [2]: 4.09 µM
- EC50 [3]: 0.815 µM
- EC50 [4]: 1.22 µM

SMILES: O=C(Nc1cncc(-c2ccc3[nH]nc(-c4cc5c(-c6ccc(F)cc6)cccc5[nH]4)c3c2)c1)C1CCC1 [Compound 49, N-(5-(3-(4-(4-Fluorophenyl)-1H-indol-2-yl)-1H-indazol-5-yl)pyridin-3-yl) cyclobutanecarboxamide]
- EC50 [1]: 0.19 µM
- EC50 [2]: 2.6 µM
- EC50 [3]: 0.778 µM
- EC50 [4]: 0.035 µM

SMILES: CC(C)C(=O)Nc1cncc(-c2ccc3[nH]nc(-c4cc5c(-c6ccccc6F)cccc5[nH]4)c3c2)c1 [Compound 65, N-(5-(3-(4-(2-Fluorophenyl)-1H-indol-2-yl)-1H-indazol-5-yl)pyridin-3-yl) isobutyramide]
- EC50 [1]: 1.17 µM
- EC50 [2]: 0.981 µM
- EC50 [3]: 0.305 µM
- EC50 [4]: 0.105 µM

SMILES: Fc1ccccc1-c1cccc2[nH]c(-c3n[nH]c4ccc(-c5cncc(CN6CCCCC6)c5)cc34)cc12 [Compound 71, 3-(4-(2-Fluorophenyl)-1H-indol-2-yl)-5-(5-(piperidin-1-ylmethyl)pyridin-3-yl)-1H-indazole]
- EC50 [1]: 1.16 µM
- EC50 [2]: 2.17 µM
- EC50 [3]: 2.55 µM
- EC50 [4]: 3.11 µM

SMILES: CCCCC(=O)Nc1cncc(-c2ccc3[nH]nc(-c4cc5c(-c6ccccc6F)cccc5[nH]4)c3c2)c1 [Compound 75, N-(5-(3-(4-(2-Fluorophenyl)-1H-indol-2-yl)-1H-indazol-5-yl)pyridin-3-yl) pentanamide]
- EC50 [1]: 1.96 µM
- EC50 [2]: 4.8 µM
- EC50 [3]: 1.98 µM
- EC50 [4]: 1 µM

SMILES: Fc1ccccc1-c1cccc2[nH]c(-c3n[nH]c4ccc(-c5cncc(CN6CCC(F)(F)C6)c5)cc34)cc12 [Compound 82, 5-(5-((3,3-Difluoropyrrolidin-1-yl)methyl)pyridin-3-yl)-3-(4-(2-fluorophenyl)-1H-indol-2-yl)-1H-indazole]
- EC50 [1]: 2.98 µM
- EC50 [2]: 5.24 µM
- EC50 [3]: 2.26 µM
- EC50 [4]: 4.3 µM

SMILES: Fc1ccccc1-c1cccc2[nH]c(-c3n[nH]c4ccc(-c5ccccn5)cc34)cc12 [Compound 84, 3-(4-(2-Fluorophenyl)-1H-indol-2-yl)-5-(pyridin-2-yl)-1H-indazole]
- EC50 [1]: 2.88 µM
- EC50 [2]: 4.21 µM
- EC50 [3]: 6.74 µM
- EC50 [4]: 2.38 µM

SMILES: CC(C)(C)C(=O)Nc1cncc(-c2ccc3[nH]nc(-c4cc5c(-c6cccnc6)cccc5[nH]4)c3c2)c1 [Compound 92, N-(5-(3-(4-(Pyridin-3-yl)-1H-indol-2-yl)-1H-indazol-5-yl)pyridin-3-yl) pivalamide]
- EC50 [1]: 0.14 µM
- EC50 [2]: 1.32 µM
- EC50 [3]: 0.612 µM
- EC50 [4]: 0.153 µM

SMILES: CC(C)Nc1cncc(-c2ccc3[nH]nc(-c4cc5c(-c6cccnc6)cccc5[nH]4)c3c2)c1 [Compound 96, N-Isopropyl-5-(3-(4-(pyridin-3-yl)-1H-indol-2-yl)-1H-indazol-5-yl)pyridin-3-amine]
- EC50 [1]: 0.1 µM
- EC50 [2]: 1.14 µM
- EC50 [3]: 0.162 µM
- EC50 [4]: 0.163 µM

SMILES: COc1cncc(-c2ccc3[nH]nc(-c4cc5c(-c6ccc(C)s6)cccc5[nH]4)c3c2)c1 [Compound 768, 5-(5-Methoxypyridin-3-yl)-3-(4-(5-methylthiophen-2-yl)-1H-indol-2-yl)-1H-indazole]
- EC50 [1]: 0.25 µM
- EC50 [2]: 1.1 µM
- EC50 [4]: > 10 µM
- inhibition at 10 µM ([4]; THP-1, printed beside >10 μM EC50, top concentration 10 μM, meaning not given, read-out: percentage in parentheses after EC50 >10): 49.8%
